In US12152264B2, “Phosphinothricin dehydrogenase mutant, genetically engineered bacterium and one-pot multi-enzyme synchronous directed evolution method” (ZHEJIANG UNIVERSITY OF TECHNOLOGY, priority 2020, dated 2024):

Tests used:
[1] = molecular target: Pseudomonas fluorescens phosphinothricin dehydrogenase (PPTDH, PfGluDH; WP_150701510.1) mutant A164G_R205K_T332A, SEQ ID No.1 (Pseudomonas azerbaijanoccidentalis, UniProt A0ABS6QXK2, A164G/R205K/T332A); assay type: biochemical; details: A164G_R205K_T332A; pH 7.0, 40° C.
[2] = molecular target: Pseudomonas fluorescens phosphinothricin dehydrogenase (PPTDH, PfGluDH; NCBI accession number WP_150701510.1), wild type (Pseudomonas azerbaijanoccidentalis, UniProt A0ABS6QXK2); test: Determination of kinetic parameters of wild-type phosphinothricin dehydrogenase (PPO reductive amination with NADPH); details: pH 7.0, 40° C.

NC(=O)C1=CN([C@@H]2O[C@H](COP(=O)(O)OP(=O)(O)OC[C@H]3O[C@@H](n4cnc5c(N)ncnc54)[C@H](OP(=O)(O)O)[C@@H]3O)[C@@H](O)[C@H]2O)C=CC1 [NADPH]
kcat/Km^A (NADPH) [1]: 1.05761e+07 M⁻¹ s⁻¹ | kcat/Km^A (NADPH) [2]: 53360 M⁻¹ s⁻¹
